Experimental data published in patent US12533359B2, “Method for preventing hair loss” (Icahn School of Medicine at Mount Sinai, priority 2019, dated 2026).
“Also recorded” adds a separate entry of the source.

Legend:
[1] = tested on: microdissected hair follicles (dermal sheath contraction); test: Ex vivo hair follicle contraction assay (live imaging of microdissected follicles, high K+ depolarization); assay type: cell-based, mouse; details: preincubation with 200 μM ML7 HCl for 1 hour, follicles from P8 back skin, hydrochloride
Description: Whether DS cells can functionally contract in a smooth muscle-like fashion through Ca2+-dependent MLCK activation was then explored. Isolated, short-term cultured DS cells were membrane depolarized by an extracellular K+ spike to activate voltage-gated Ca2+ channels in the presence of Fluo8 fluorescent Ca2+ indicator. The switch from high Na+ to high K+ media led to effective Ca2+ influx within 1.5 minutes (FIG. 3A). […] Next, whether the DS can functionally contract and compress intact hair follicles isolated by microdissection (FIG. 3C) was tested.
Hair follicles were microdissected from P8 back skin under a Leica S6E stereomicroscope in PBS and collected in 24-well plates. Media was then changed to Krebs buffer+glucose with or without 200 μM ML7 HCl (Tocris) and incubated for 1 hour at 37° C. Single follicles were then transferred to a 6 cm petri dishes immersed in Krebs buffer+glucose and immobilized by embedding the hair shaft tips in a 5×5 mm piece of parafilm. Follicles were then imaged under brightfield illumination on a Leica inverted DM6000 microscope in an enclosed live cell chamber at 37° C. with 5% CO2. Images were taken with a 10× air lens with time intervals of 10 seconds. During imaging, media was exchanged for Krebs buffer+glucose with KCl supplanting NaCl and follicles were refocused when necessary, which took a duration of no more than 10 seconds. […]

[2] = tested on: hair follicle regression (catagen) in back skin; test: In vivo contraction inhibition (topical application on back skin during catagen); set-up: species or system mice; details: 1 mM in 20 μl DMSO, topical twice daily P13 to P19, back skin analysed at P20
Source text: To determine whether smooth muscle-like contraction is a main function of the DS to propagate hair follicle regression in vivo, the MLCK pathway was blocked by twice-daily topical application of ML7 throughout catagen on the back skin of mice (FIG. 3G). On the contralateral vehicle control side, follicles regressed normally into telogen with the DP niche relocated next to the SC reservoir (FIG. 3H). […] However, in contrast to ablated follicles, the DS as expected surrounds follicles including DP. […] Patches of lateral back skin measuring 1×1 cm of P13 mice (2 patches per mouse) were clipped and then shaved with a razor blade until no external hair shafts within patches remained. Vehicle-only control DMSO or ML7 HCl (Tocris) dissolved in an equal volume of DMSO (1 mM in 20 μl) was pipetted onto hairless patches and locally rubbed into the skin using a glass rod until visibly dry. Topical applications were performed twice daily from P13 to P19, once in the morning and once in the evening separated by 12 hours. Pieces of back skins including treated areas were then harvested at P20 for downstream analysis.

Cl.O=S(=O)(c1cccc2c(I)cccc12)N1CCCNCC1 [ML7, hexahydro-1-[(5-iodo-1-naphthalenyl)sulfonyl]-1H-1,4-diazepine hydrochloride]
reduction of follicle widths in high K+ (follicle contraction) [1]: effectively blocked | DP niche relocation to the stem cells [2]: the DP remains at the tip of stalled follicles | hair follicle regression into telogen (stalled follicles) ([2]; contralateral DMSO vehicle control, hydrochloride): striking failure of regression with long stalled follicles stranded deep in the dermis; also recorded: blocks hair follicle regression in vivo
